Test results as given in patent US8466088B2, “Herbicidal compositions containing benzoylpyrazole compounds” (Ishihara Sangyo Kaisha, Ltd., priority 2007, dated 2013).
Like-named read-outs stand apart in the source and are kept apart here.

Experiments:
[1] = tested on: crabgrass; test: Example 1: pot test, foliar treatment, visually observed growth inhibition of crabgrass; assay type: in vivo
[2] = tested on: velvetleaf; test: Example 1: pot test, foliar treatment, visually observed growth inhibition of velvetleaf; assay type: in vivo, Abutilon theophrasti MEDIC.
[3] = tested on: various plants; test: Example 1: pot test, foliar treatment, visually observed growth inhibition of other sown plants (Tables 5-1 to 5-137); assay type: in vivo; details: for Growth inhibition rate (%) of ivyleaf morningglory, Measured value: ivyleaf morningglory 1.5 to 2.1 leaf stage
Excerpt: When the herbicidal activity in a case where two active ingredients are combined, is larger than the simple sum of the respective herbicidal activities of the two active ingredients (the expected activity), it is called a synergistic effect. The activity expected by the combination of two active ingredients can be calculated as follows (Colby S. R., “Weed”, vol. 15, p. 20-22, 1967). E=α+β−(α×β+100) where
α: growth inhibition rate when treated with x (g/ha) of herbicide X,
β: growth inhibition rate when treated with y (g/ha) of herbicide Y,
E: growth inhibition rate expected when treated with x (g/ha) of herbicide X and y (g/ha) of herbicide Y.
That is, when the actual growth inhibition rate (measured value) is larger than the growth inhibition rate by the above calculation (calculated value), the activity by the combination can be regarded as showing a synergistic effect.
Upland field soil was put into a 1/1,000,000 hectare pot, and seeds of various plants were sown. When the respective plants reached predetermined leaf stage, herbicidal compositions in predetermined amounts were diluted with water in an amount corresponding to 300 L/ha and applied for foliar treatment by a small sprayer.
On the 14th to 28th day after application, the state of growth of the respective plants was visually observed to determine the growth inhibition rate (measured value) in accordance with the following evaluation standard. Further, in accordance with the above Colby's formula, the growth inhibition rate (calculated value) was calculated. In Tables, with respect to the compound A, Compound Nos. in Table 1 or 3 are described, and with respect to other herbicidal compounds, common names are described.

[4] = 3.2 to 4.3 leaf stage, 21st day after application, 15 g/ha

Q: `COCCOc1c(S(C)(=O)=O)ccc(C(=O)c2cnn(C)c2OC(=O)SC(C)(C)C)c1C` [No. 241] was tested. Which “Growth inhibition rate (%) of crabgrass, Measured value” ([1]; 3.1 to 4.0 leaf stage, 22nd day after application, 15 g/ha) did it give?
A: The value was 90%.

Q: And the “Growth inhibition rate (%) of crabgrass, Measured value” ([1]; 3.2 to 4.1 leaf stage, 14th day after application, 15 g/ha)?
A: The value was 94%.

Q: And the “Growth inhibition rate (%) of crabgrass, Measured value” ([1]; 3.2 to 4.1 leaf stage, 21st day after application, 7 g/ha)?
A: The value was 80%.

Q: What about the “Growth inhibition rate (%) of crabgrass, Measured value” ([1]; 3.2 to 4.1 leaf stage, 21st day after application, 15 g/ha) of the same molecule?
A: Its value is 93%.

Q: What about the “Growth inhibition rate (%) of crabgrass, Measured value” ([1]; 3.2 to 4.3 leaf stage, 14th day after application, 15 g/ha) of the same molecule?
A: Its value is 93%.

Q: What about the “Growth inhibition rate (%) of crabgrass, Measured value” [1, 4] of the same molecule?
A: Its value is 88%.

Q: What about the “Growth inhibition rate (%) of crabgrass, Measured value” ([1]; 3.3 to 4.2 leaf stage, 24th day after application, 15 g/ha) of the same molecule?
A: Its value is 75%.

Q: And the “Growth inhibition rate (%) of crabgrass, Measured value” ([1]; 3.5 to 4.2 leaf stage, 14th day after application, 15 g/ha)?
A: Its value is 90%.

Q: And the “Growth inhibition rate (%) of crabgrass, Measured value” ([1]; 3.5 to 4.2 leaf stage, 20th day after application, 1.875 g/ha)?
A: Its value is 30%.

Q: And the “Growth inhibition rate (%) of crabgrass, Measured value” ([1]; 3.5 to 4.2 leaf stage, 20th day after application, 3.75 g/ha)?
A: The value was 68%.

Q: And the “Growth inhibition rate (%) of crabgrass, Measured value” ([1]; 3.7 to 4.6 leaf stage, 21st day after application, 7 g/ha)?
A: Its value is 80%.

Q: And the “Growth inhibition rate (%) of crabgrass, Measured value” ([1]; 3.7 to 4.6 leaf stage, 21st day after application, 15 g/ha)?
A: The value was 94%.

Q: And the “Growth inhibition rate (%) of crabgrass, Measured value” ([1]; 4.0 to 5.0 leaf stage, 21st day after application, 7 g/ha)?
A: Its value is 60%.

Q: What about the “Growth inhibition rate (%) of crabgrass, Measured value” ([1]; 4.0 to 5.0 leaf stage, 21st day after application, 15 g/ha) of the same molecule?
A: The value was 80%.

Q: And the “Growth inhibition rate (%) of velvetleaf, Measured value” ([2]; 2.5 to 3.3 leaf stage, 21st day after application, 7 g/ha)?
A: The value was 65%.

Q: And the “Growth inhibition rate (%) of velvetleaf, Measured value” ([2]; 2.5 to 3.3 leaf stage, 21st day after application, 15 g/ha)?
A: The value was 80%.

Q: And the “Growth inhibition rate (%) of velvetleaf, Measured value” ([2]; 2.6 to 3.3 leaf stage, 20th day after application, 7 g/ha)?
A: The value was 70%.

Q: And the “Growth inhibition rate (%) of velvetleaf, Measured value” ([2]; 2.8 to 3.6 leaf stage, 24th day after application, 3.75 g/ha)?
A: The value was 45%.

Q: What about the “Growth inhibition rate (%) of velvetleaf, Measured value” ([2]; 3.0 to 4.0 leaf stage, 21st day after application, 7 g/ha) of the same molecule?
A: Its value is 60%.

Q: What about the “Growth inhibition rate (%) of velvetleaf, Measured value” ([2]; 3.0 to 4.0 leaf stage, 21st day after application, 15 g/ha) of the same molecule?
A: The value was 80%.

Q: And the “Growth inhibition rate (%) of velvetleaf, Measured value” [2, 4]?
A: The value was 85%.

Q: And the “Growth inhibition rate (%) of velvetleaf, Measured value” ([2]; 3.3 to 4.3 leaf stage, 20th day after application, 3.75 g/ha)?
A: The value was 45%.

Q: And the “Growth inhibition rate (%) of velvetleaf, Measured value” ([2]; 3.3 to 4.3 leaf stage, 20th day after application, 15 g/ha)?
A: The value was 80%.

Q: And the “Growth inhibition rate (%) of velvetleaf, Measured value” ([2]; 4.0 to 4.4 leaf stage, 22nd day after application, 15 g/ha)?
A: Its value is 97%.

Q: What about the “Growth inhibition rate (%) of ivyleaf morningglory, Measured value” ([3]; 14th day after application, 75 g/ha) of the same molecule?
A: Its value is 88%.

Q: And the “Growth inhibition rate (%) of ivyleaf morningglory, Measured value” ([3]; 23rd day after application, 100 g/ha)?
A: The value was 85%.

Q: And the “Growth inhibition rate (%) of prickly sida, Measured value” ([3]; prickly sida 2.1 to 3.1 leaf stage, 20th day after application, 50 g/ha)?
A: The value was 60%.

Q: And the “Growth inhibition rate (%) of prickly sida, Measured value” ([3]; prickly sida 2.1 to 3.1 leaf stage, 20th day after application, 100 g/ha)?
A: The value was 60%.

Q: How did the inhibition at 175 g/ha ([1]; Digitaria sanguinalis, foliar, 3.1 to 4.0 leaf stage, 22nd day after application, 175 g/ha, read-out: Growth inhibition rate (%) of crabgrass, Measured value) turn out when `CCNc1nc(Cl)nc(NC(C)(C)C)n1` [Terbuthylazine, terbuthylazine, reference compound] was run?
A: The inhibition at 175 g/ha was 0%.

Q: And the inhibition at 375 g/ha ([1]; Digitaria sanguinalis, foliar, 3.1 to 4.0 leaf stage, 22nd day after application, 375 g/ha, read-out: Growth inhibition rate (%) of crabgrass, Measured value)?
A: Its inhibition at 375 g/ha is 0%.

Q: And the inhibition at 250 g/ha ([1]; Digitaria sanguinalis, foliar, 3.2 to 4.3 leaf stage, on the 22nd day after application, foliar, active ingredient amount 250 g/ha, read-out: Growth inhibition rate (%) of crabgrass, Measured value)?
A: Its inhibition at 250 g/ha is 20%.

Q: What about the inhibition at 125 g/ha ([1]; Digitaria sanguinalis, foliar, 3.5 to 4.0 leaf stage, 21st day after application, read-out: Growth inhibition rate (%) of crabgrass, Measured value) of the same molecule?
A: Its inhibition at 125 g/ha is 0%.

Q: And the inhibition at 125 g/ha ([1]; Digitaria sanguinalis, foliar, 4.3 to 4.5 leaf stage, 20th day after application, read-out: Growth inhibition rate (%) of crabgrass, Measured value)?
A: The inhibition at 125 g/ha was 0%.

Q: What about the inhibition at 250 g/ha ([1]; Digitaria sanguinalis, foliar, 4.3 to 4.5 leaf stage, 20th day after application, 250 g/ha, read-out: Growth inhibition rate (%) of crabgrass, Measured value) of the same molecule?
A: The inhibition at 250 g/ha was 0%.

Q: What about the inhibition at 125 g/ha ([2]; Abutilon theophrasti, foliar, 2.0 to 2.5 leaf stage, 21st day after application, 125 g/ha, read-out: Growth inhibition rate (%) of velvetleaf, Measured value) of the same molecule?
A: The inhibition at 125 g/ha was 0%.

Q: And the inhibition at 125 g/ha ([2]; Abutilon theophrasti, foliar, 2.4 to 3.2 leaf stage, on the 22nd day after application, foliar, active ingredient amount 125 g/ha, read-out: Growth inhibition rate (%) of velvetleaf, Measured value)?
A: The inhibition at 125 g/ha was 5%.

Q: And the inhibition at 2000 g/ha ([2]; Abutilon theophrasti, foliar, 2.8 to 3.6 leaf stage, 24th day after application, 2000 g/ha, read-out: Growth inhibition rate (%) of velvetleaf, Measured value)?
A: Its inhibition at 2000 g/ha is 20%.

Q: And the inhibition at 125 g/ha ([2]; Abutilon theophrasti, foliar, 3.0 to 3.5 leaf stage, 20th day after application, 125 g/ha, read-out: Growth inhibition rate (%) of velvetleaf, Measured value)?
A: The inhibition at 125 g/ha was 0%.

Q: And the inhibition at 375 g/ha ([2]; Abutilon theophrasti, foliar, 3.3 to 4.3 leaf stage, 20th day after application, read-out: Growth inhibition rate (%) of velvetleaf, Measured value)?
A: The inhibition at 375 g/ha was 20%.

Q: And the inhibition at 750 g/ha ([2]; Abutilon theophrasti, foliar, 3.3 to 4.3 leaf stage, 20th day after application, 750 g/ha, read-out: Growth inhibition rate (%) of velvetleaf, Measured value)?
A: The inhibition at 750 g/ha was 30%.

Q: What about the inhibition at 175 g/ha ([2]; Abutilon theophrasti, foliar, 4.0 to 4.4 leaf stage, 22nd day after application, 175 g/ha, read-out: Growth inhibition rate (%) of velvetleaf, Measured value) of the same molecule?
A: The inhibition at 175 g/ha was 15%.

Q: What about the inhibition at 375 g/ha ([2]; Abutilon theophrasti, foliar, 4.0 to 4.4 leaf stage, 22nd day after application, read-out: Growth inhibition rate (%) of velvetleaf, Measured value) of the same molecule?
A: Its inhibition at 375 g/ha is 25%.

Q: What about the inhibition at 45 g/ha ([3]; foliar, prickly sida 2.1 to 3.1 leaf stage, 20th day after application, 45 g/ha, read-out: Growth inhibition rate (%) of prickly sida, Measured value) of the same molecule?
A: Its inhibition at 45 g/ha is 0%.

Q: What about the inhibition at 63 g/ha ([3]; foliar, prickly sida 2.1 to 3.1 leaf stage, 20th day after application, 63 g/ha, read-out: Growth inhibition rate (%) of prickly sida, Measured value) of the same molecule?
A: The inhibition at 63 g/ha was 0%.

Q: And the inhibition at 125 g/ha ([3]; foliar, prickly sida 2.1 to 3.1 leaf stage, 20th day after application, 125 g/ha, read-out: Growth inhibition rate (%) of prickly sida, Measured value)?
A: The inhibition at 125 g/ha was 0%.

Q: And the inhibition at 250 g/ha ([3]; foliar, prickly sida 2.1 to 3.1 leaf stage, 20th day after application, 250 g/ha, read-out: Growth inhibition rate (%) of prickly sida, Measured value)?
A: Its inhibition at 250 g/ha is 15%.

Q: And the inhibition at 500 g/ha ([3]; foliar, prickly sida 2.1 to 3.1 leaf stage, 20th day after application, 500 g/ha, read-out: Growth inhibition rate (%) of prickly sida, Measured value)?
A: Its inhibition at 500 g/ha is 55%.
